Data taken from patent US20220380383A1, “NEUROPROTECTIVE PDI MODULATING SMALL MOLECULES AND METHODS OF USE THEREOF” (THE TRUSTEES OF COLUMBIA UNIVERSITY IN THE CITY OF NEW YORK, priority 2018, published 2022).
≈ marks a conversion by molar mass, not a printed value. Where two headings read alike, the source gives them in different places.

Legend:
[1] = Solubility (stock solvent)
[2] = biological target: T1, human catalytic PDI A1 a domain (PDIa) (Homo sapiens, UniProt P07237); assay: Isothermal titration calorimetry (ITC) binding to PDIa
T1 construct: made in house; host or cells: Escherichia coli BL21-Gold (DE3)
T1 sequence (P07237 18-134): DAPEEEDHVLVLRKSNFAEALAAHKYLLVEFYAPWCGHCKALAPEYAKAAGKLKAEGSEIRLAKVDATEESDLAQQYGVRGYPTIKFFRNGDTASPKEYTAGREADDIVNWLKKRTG
Description: All ITC experiments were carried out at 25° C. on MicoCal Auto-ITC200 system (GE Healthcare). […] ITC titration experiments were carried out at 25° C. with 19 injections, 2 μl per injection, and 180 seconds between each injection. The reference cell power was set to 5 μcal/sec. A control experiment was performed for each compound, where each compound was titrated into buffer to account for heat released due to dilution. This background was subtracted from test data before a final dissociation constant was obtained. […] Gibbs free energy, ΔG, was calculated from equation ΔG=ΔH-TΔS. All other parameters, Ka, n, ΔH, ΔS, were determined directly from the titration data.
LOC14 analogs were designed and synthesized as described in the synthetic schemes. The analogs were evaluated for their binding to PDIa using isothermal titration calorimetry (ITC) (results of certain compounds are shown in FIGS. 1A-1E). Next, the analogs were tested for their ability to rescue PC12 cells from mHTT^Q103 induced cell death in a dose-dependent manner (results of certain compounds are shown in FIG. 2).

PC12 mHTTQ103 cells = assay: Rescue of PC12 cells from mHTTQ103-induced cell death; type: cell-based, rat; conditions: for EC50: Rattus norvegicus, PC-12
[3] = Tables 5-13, solvent not given (DMSO in Table 1)
[4] = Tables 5-13, NA = not active, read-out: Kd
[5] = Tables 5-13, PC12 cells, read-out: EC50
[6] = rescue from mHTTQ103 induced cell death
[7] = N/A = not active, read-out: ITC KD
[8] = rescue from mHTTQ103 induced cell death, read-out: PC12 cells EC50

| Structure (SMILES) | Solubility [1] [mM in DMSO] | Solubility [1, 3] [mM] | Kd [2, 4] [nM] | EC50 (PC12 mHTTQ103 cells; [5]) [µM] | Max Viability (%) (PC12 mHTTQ103 cells; Tables 5-13, PC12 cells) | PC12 cells Max % Viability (PC12 mHTTQ103 cells; [6]) [%] | Kd [2, 7] [nM] | EC50 (PC12 mHTTQ103 cells; [8]) [µM] | Kd ([2]; Tables 6, 11, 12, read-out: Kd (nM), first value of two-site binding) [nM] | Kd ([2]; Tables 6, 11, 12, read-out: Kd (nM), second value of two-site binding) [nM] | ITC KD ([2]; N/A = not active) | Kd ([2]; ITC assay, read-out: KD) [nM] | Solubility ([1]; in water) [mM in water] | PC12 cells EC50 (PC12 mHTTQ103 cells; [6]) |
| --- | --- | --- | --- | --- | --- | --- | --- | --- | --- | --- | --- | --- | --- | --- |
| O=c1c2ccccc2sn1CN1CCCCC1 [LC-1] | 100 | 100 (≈ 24.8 mg/mL) | 107 | 0.459 | 67 | 66.57 |  |  |  |  |  |  |  |  |
| CN1CCN(Cn2sc3ccccc3c2=O)CC1 [LC-2] | 100 | 100 (≈ 26.3 mg/mL) | 134 ± 20 | 0.415 | 63 | 63.29 |  |  |  |  |  |  |  |  |
| O=c1c2ccccc2sn1CN1CCSCC1 [LC-3] |  | 100 (≈ 26.6 mg/mL) |  | 0.463 | 63 | 63.05 | 97.1 |  |  |  |  |  |  |  |
| O=c1c2ccccc2sn1CN1CCC(CO)CC1 [LC-4] | 100 | 100 (≈ 27.8 mg/mL) | 265 | 0.343 | 60 | 60.18 |  | 0.343 |  |  |  |  |  |  |
| O=c1c2ccccc2sn1Cc1ccccc1 [LC-5] | 100 | 100 (≈ 24.1 mg/mL) |  |  |  |  |  |  | 43 | 2270 |  |  |  |  |
| O=C(Nc1ccccc1)n1sc2ccccc2c1=O [LC-6] | 30 | 30 (≈ 8.11 mg/mL) |  | 0.476 | 66 | 66.47 |  |  |  |  | KD = N/A irreversible or not active |  |  |  |
| O=c1c2ccccc2sn1CN1CCC(O)CC1 [LC-7] | 100 | 100 (≈ 26.4 mg/mL) |  | 0.441 | 72 | 71.98 |  |  |  |  |  |  |  |  |
| CC(C)(C)OC(=O)NC1CCN(Cn2sc3ccccc3c2=O)CC1 [LC-8] |  |  | 94 | 0.384 | 68 | 68.37 |  | 0.384 |  |  |  |  |  |  |
| O=c1c2ccccc2sn1CN1CCN(Cn2sc3ccccc3c2=O)CC1 [LC-9] | 5 | 5 (≈ 2.06 mg/mL) |  |  | 66 | 66.07 | 12.7 | 0.173 |  |  |  | 13 |  |  |
| CC(C)(C)OC(=O)N1CCN(Cn2sc3ccccc3c2=O)CC1 [LC-10] | 100 | 100 (≈ 34.9 mg/mL) | 123 ± 34 | 0.581 | 72 | 71.82 |  | 0.561 |  |  |  |  |  |  |
| O=C(c1ccccc1)n1sc2ccccc2c1=O [LC-11] | 100 | 100 (≈ 25.5 mg/mL) |  | > 50 | 28 | 27.72 |  |  |  |  | KD = N/A irreversible or not active |  |  |  |
| O=c1c2ccccc2sn1CN1CCN(c2ncccn2)CC1 [LC-12] | 100 | 100 (≈ 32.7 mg/mL) | 140 ± 29 | 0.416 | 68 | 68.35 |  |  |  |  |  |  |  |  |
| CC(=O)c1ccc(N2CCN(Cn3sc4ccccc4c3=O)CC2)cc1 [LC-13] | 100 | 100 (≈ 36.7 mg/mL) | 190 ± 27 | 0.514 | 63 | 63.14 |  |  |  |  |  |  |  |  |
| O=C(C1CC1)N1CCN(C(=O)n2sc3ccccc3c2=O)CC1 [LC-14] |  |  |  | > 50 | 34 | 33.58 |  |  |  |  | KD = N/A irreversible or not active |  |  |  |
| O=C(C1CC1)N1CCN(Cn2sc3ccc(Cl)cc3c2=O)CC1 [LC-15] | 15 | 15 (≈ 5.28 mg/mL) | 114 | 0.487 | 57 | 56.92 |  | 0.487 |  |  |  |  |  |  |
| CC(C)(C)OC(=O)N1CCC(COc2nsc3ccccc23)CC1 [LC-16] |  |  |  | > 50 | 30 | 30.24 |  |  |  |  | KD = N/A irreversible or not active |  |  |  |
| O=c1c2ccccc2sn1CN1CCOCC1 [LC-18] | 100 | 100 (≈ 25 mg/mL) | 253 | 0.547 | 69 | 69.00 |  |  |  |  |  |  |  |  |
| O=C(Nc1ccccc1)c1ccccc1S [LC-19] |  |  |  |  |  |  |  |  |  |  | KD = N/A irreversible or not active |  |  |  |

| Structure (SMILES) | Solubility [1] [mM in DMSO] | Solubility [1, 3] [mM] | Kd [2, 4] [nM] | EC50 (PC12 mHTTQ103 cells; [5]) [µM] | Max Viability (%) (PC12 mHTTQ103 cells; Tables 5-13, PC12 cells) | PC12 cells Max % Viability (PC12 mHTTQ103 cells; [6]) [%] | Kd [2, 7] [nM] | EC50 (PC12 mHTTQ103 cells; [8]) [µM] | Kd ([2]; Tables 6, 11, 12, read-out: Kd (nM), first value of two-site binding) [nM] | Kd ([2]; Tables 6, 11, 12, read-out: Kd (nM), second value of two-site binding) [nM] | ITC KD ([2]; N/A = not active) | Kd ([2]; ITC assay, read-out: KD) [nM] | Solubility ([1]; in water) [mM in water] | PC12 cells EC50 (PC12 mHTTQ103 cells; [6]) |
| --- | --- | --- | --- | --- | --- | --- | --- | --- | --- | --- | --- | --- | --- | --- |
| O=C(NCc1ccc(Br)cc1)c1ccccc1S [LC-20] | 100 | 100 (≈ 32.2 mg/mL) |  | > 50 | 42 | 42.11 |  |  |  |  | KD = N/A irreversible or not active |  |  |  |
| O=C(Nc1ccc(N2CCOCC2)cc1)c1ccccc1S [LC-21] | 100 | 100 (≈ 31.4 mg/mL) |  | 0.696 | 32 | 31.98 |  |  |  |  | KD = N/A irreversible or not active |  |  |  |
| O=c1c2ccccc2sn1CN1CCN(Cc2ccccc2)CC1 [LC-22] | 100 | 100 (≈ 33.9 mg/mL) | 173 ± 32 | 0.31 | 62 | 61.51 |  |  |  |  |  |  |  |  |
| O=C(Nc1ccc(Cc2ccccc2)cc1)c1ccccc1S [LC-23] | 100 | 100 (≈ 31.9 mg/mL) |  | 3.88 | 57 | 56.53 |  |  |  |  | KD = N/A irreversible or not active |  |  |  |
| O=c1c2ccccc2sn1-c1ccc(Cc2ccccc2)cc1 [LC-25] | 100 | 100 (≈ 31.7 mg/mL) |  | 1.59 | 37 | 36.83 |  |  |  |  | KD = N/A irreversible or not active |  |  |  |
| O=c1c2ccccc2sn1Cc1ccc(Br)cc1 [LC-26] | 100 | 100 (≈ 32 mg/mL) |  | 0.778 | 38 | 37.88 |  |  |  |  | KD = N/A irreversible or not active |  |  |  |
| O=c1c2ccccc2sn1-c1ccc(N2CCOCC2)cc1 [LC-27] |  |  |  | 1.83 | 28 | 28.37 |  |  |  |  | KD = N/A irreversible or not active |  |  |  |
| C[C@@H](NC(=O)c1ccccc1S)c1ccccc1 [LC-28] | 100 | 100 (≈ 25.7 mg/mL) |  | 0.808 | 56 | 55.52 |  |  |  |  | KD = N/A irreversible or not active |  |  |  |
| C[C@H](c1ccccc1)n1sc2ccccc2c1=O [LC-29] | 100 | 100 (≈ 25.5 mg/mL) | 658 | 0.669 | 42 | 42.02 |  | 0.669 |  |  |  |  |  |  |
| O=C(Nc1cccc(F)c1)c1ccccc1S [LC-30] | 100 | 100 (≈ 24.7 mg/mL) |  | 2.99 | 62 | 62.38 |  |  |  |  | KD = N/A irreversible or not active |  |  |  |
| O=c1c2ccccc2sn1-c1cccc(F)c1 [LC-31] | 100 | 100 (≈ 24.5 mg/mL) |  | 1.77 | 36 | 36.24 |  |  |  |  | KD = N/A irreversible or not active |  |  |  |
| COCCn1sc2ccccc2c1=O [LC-32] | 100 | 100 (≈ 20.9 mg/mL) | 158 | 0.7 | 42 | 41.96 |  |  |  |  |  |  |  |  |
| O=C(Nc1ccc(Oc2ccccc2)cc1)c1ccccc1S [LC-33] | 100 | 100 (≈ 32.1 mg/mL) |  | 2.94 | 54 | 54.43 |  |  |  |  | KD = N/A irreversible or not active |  |  |  |
| Cc1ccc(NC(=O)c2ccccc2S)c(Br)c1 [LC-34] | 100 | 100 (≈ 32.2 mg/mL) |  | 3.77 | 42 | 41.95 |  |  |  |  | KD = N/A irreversible or not active |  |  |  |
| Cn1sccc1=O [LC-35] |  | 100 (≈ 11.5 mg/mL) |  |  | 15 | 14.63 |  |  |  |  | KD = N/A irreversible or not acitve |  | 100 | Not Active |
| O=c1[nH]sc2ncccc12 [LC-47, isothiazolo[5,4-b]pyridin-3(2H)-one] |  |  |  | > 50 | 36 | 36.31 |  |  |  |  | KD = N/A irreversible or not active |  |  |  |
| O=C(C1CC1)N1CCN(Cn2oc3ccccc3c2=O)CC1 [Oxy- LOC14] | 100 |  |  |  |  | 8.16 |  |  |  |  |  |  |  | Not Active |
